Reference: US20190246658A1, “METHODS OF HANDLING PAPAYA” (AGROFRESH INC., priority 2013, published 2019)

Assays:
Format in all cases: in vivo, papaya
Papayas ‘Golden’ [1] = experiment: Example 2 (yellow stage): weight loss; details: for Weight loss: 500 ppb of MCP
Description: (§1) A similar test to Example 1 but papayas are tested during their yellow stage. Papayas ‘Golden’ were harvested in Linhares—Espírito Santo—Brazil. The fruits were packed in MAP Bags and put in cardboard boxes.
(§2) The fruits were first left at room temperature during 3 days to reach yellow maturity stage.
(§3) After that the appropriate weight of papayas was placed in each bag after harvest. Bags were placed in the same cardboard boxes used to export the fruits. Papayas then were cold stored at (11° C.) at the Laboratory.
(§4) The Test Protocol that was used was as follows. 18 MAP bags were packed. Each bag held approximately 3.8 kg (8.4 lb) of papayas. One such bag was packed in each cardboard box. Total weight of papayas in MAP bags was approximately 68 kg. Approximately 68 kg of papayas were placed into cardboard boxes identical to those used for the MAP bags.
(§5) The MAP-packaged papayas were packaged as follows: Nine fruits, approximately 3.8 kg were carefully placed into microperforated bags, and the bags were sealed by twisting the open side of the bag, folding down the twisted end, and placing a rubber band around the twisted and folded end of the bag.
(§6) All papayas were kept at cold temperature (11° C.) during 26 days and after that the fruits (packed in MAP bags or not) were put in room temperature (22° C.) during 8 days.
(§7) After the 3 days for maturation at room temperature, when the papayas had around 5 lbf of average firmness, each treatment set was marked, placed in a hermetical chamber at cold temperature (11° C.). All chambers were of equal size and packed the same way. Treatment was for 12 hr. In the chambers for the 2 “MCP” treatment groups, at the beginning of the treatment period, SmartFresh™ were placed in the chamber. The amount of SmartFresh™ was chosen to achieve the indicated concentration of 1-methylcyclopropene in the atmosphere of the chamber.
Weight loss was measured using the difference in weight observed in selected papayas from each treatment. These fruits were weighted before the cold storage and then the same fruits were weighted on the evaluations days.

Papayas ‘Golden’ [2] = experiment: Example 2 (yellow stage): pulp firmness, internal; details: 500 ppb of MCP
Description: as §1, §2, §3, §4, §5, §6, §7
(§8) Evaluation for skin color and firmness was as follows. Day “zero” was the day the papayas were removed from the chamber and placed in storage.
(§9) For the Pulp Firmness evaluation two measurements were done, one for External Firmness and another for Internal Firmness. For External Firmness, the papayas had the skin removed with a peeler and the pulp firmness was measured with a Firmness Texture Analyzer (FTA) with a probe of 8 mm. For Internal Firmness, the papayas were cut transversally and a measurement close to the center of the fruit was taken with the FTA.

Papayas ‘Golden’ [3] = experiment: Example 3: pulp firmness, external, MAP bags with different perforations; details: for External Firmness - Difference with Untreated Fruits (Δ) / Pulp Firmness - External: 100 ppb of MCP; for External Firmness - Difference with Untreated Fruits (Δ): 5 Days @ 24° C.
Description: Papayas ‘Golden’ were harvested in Linhares—Espírito Santo—Brazil. The fruits were packed in MAP Bags and put in cardboard boxes.
The appropriate weight of papayas was placed in each bag after harvest. Bags were placed in the same cardboard boxes used to export the fruits. Papayas then were cold stored at (11° C.) at the Laboratory.
The Test Protocol that was used was as follows. 40 MAP bags were packed. Each bag held approximately 3.8 kg (8.4 lb) of papayas. One of such bag was packed in each cardboard box. Total weight of papayas in MAP bags was approximately 152 kg. Approximately 8 kg of papayas were placed into cardboard boxes identical to those used for the MAP bags.
The MAP-packaged papayas were packaged as follows: Nine fruits, approximately 3.8 kg, were carefully placed into microperforated MAP-bags, and the bags were sealed by twisting the open side of the bag, folding down the twisted end, and placing a rubber band around the twisted and folded end of the bag.
All papayas were kept at cold temperature (11° C.) during 14 days and after that the fruits (packed in MAP bags or not) were put in room temperature (24° C.) during 5 days.
One day after harvest, when the papayas had around 30 lbf of average firmness, each treatment set was marked and placed in a hermetical chamber at cold temperature (11° C.). All chambers were of equal size and packed the same way. Treatment was for 12 hours.
In the chambers, SmartFresh™ was placed at the beginning of the treatment period for the 5 “MCP” treatment groups. The amount of SmartFresh™ was chosen to achieve the indicated concentration of 1-methylcyclopropene in the atmosphere of the chamber.
as §8
For External Firmness, the papayas had the skin removed with a peeler and the pulp firmness was measured with a Firmness Texture Analyzer (FTA) with a probe of 8 mm.

Papayas ‘Golden’ [4] = experiment: Example 2 (yellow stage): percentage of fruits with ideal internal pulp firmness (2.5-7.0 lbf); details: 500 ppb of MCP, ideal = between 2.5 and 7.0 lbf
Description: as §1, §2, §3, §4, §5, §6, §7, §9
The desirable internal pulp firmness for consumption of papayas is between 2.5 and 7.0 lbf. The percentage of fruits with internal pulp firmness between 2.5 and 7.0 lbf was calculated.

Papayas ‘Golden’ [5] = experiment: Example 2 (yellow stage): pulp firmness, external; details: for Pulp Firmness - External: 500 ppb of MCP
Description: as §1, §2, §3, §4, §5, §6, §7, §8, §9

[6] = MAP bag, 26 days at 11° C. then 0 days @ 22° C.
[7] = MAP bag, 26 days at 11° C. then 4 days @ 22° C.
[8] = MAP bag, 26 days at 11° C. then 8 days @ 22° C.
[9] = No Bag, 26 days at 11° C. then 0 days @ 22° C.
[10] = No Bag, 26 days at 11° C. then 4 days @ 22° C.
[11] = No Bag, 26 days at 11° C. then 8 days @ 22° C.

For `CC1=CC1` [MCP, 1-methylcyclopropene], the “weight loss, in words” value (Papayas ‘Golden’ [1]; 1-MCP alone (no MAP)) was “elevated weight loss”, the Weight loss (Papayas ‘Golden’ [1]; [6]) was 0.68% and the Weight loss (Papayas ‘Golden’ [1]; [7]) was 1.21%. For the same molecule, the Weight loss (Papayas ‘Golden’ [1]; [8]) was 2.09%, the Weight loss (Papayas ‘Golden’ [1]; [9]) was 5.42% and the Weight loss (Papayas ‘Golden’ [1]; [10]) was 9.07%. For the same molecule, the Weight loss (Papayas ‘Golden’ [1]; [11]) was 16.53%, the “Pulp Firmness - Internal” value (Papayas ‘Golden’ [2]; [6]) was 1.20 lbf and the “Pulp Firmness - Internal” value (Papayas ‘Golden’ [2]; [7]) was 0.92 lbf. The “Pulp Firmness - Internal” value (Papayas ‘Golden’ [2]; [8]) was 0.88 lbf, the “Pulp Firmness - Internal” value (Papayas ‘Golden’ [2]; [9]) was 1.21 lbf and the “Pulp Firmness - Internal” value (Papayas ‘Golden’ [2]; [10]) was 1.55 lbf. The “Pulp Firmness - Internal” value (Papayas ‘Golden’ [2]; [11]) was 0.95 lbf, the “external firmness during shelf-life, in words” value (Papayas ‘Golden’ [3]; 1-MCP alone (no MAP)) was “not high enough external firmness” and the “External Firmness - Difference with Untreated Fruits (Δ)” value (“External Firmness - Difference … (Δ)” for short) (Papayas ‘Golden’ [3]; 24 Perf. MAP bag) was 2.59 lbf. For the same molecule, the “Pulp Firmness - External” value (Papayas ‘Golden’ [3]; 24 Perf. MAP bag, 14 days at 11° C. then 3 days @ 24° C.) was 5.23 lbf, the “Pulp Firmness - External” value (Papayas ‘Golden’ [3]; 24 Perf. MAP bag, 14 days at 11° C. then 5 days @ 24° C.) was 4.12 lbf and the “External Firmness - Difference … (Δ)” value (Papayas ‘Golden’ [3]; 48 Perf. MAP bag) was 0.89 lbf. The “Pulp Firmness - External” value (Papayas ‘Golden’ [3]; 48 Perf. MAP bag, 14 days at 11° C. then 3 days @ 24° C.) was 3.68 lbf, the “Pulp Firmness - External” value (Papayas ‘Golden’ [3]; 48 Perf. MAP bag, 14 days at 11° C. then 5 days @ 24° C.) was 2.42 lbf and the “External Firmness - Difference … (Δ)” value (Papayas ‘Golden’ [3]; 90 Perf. MAP bag) was 1.75 lbf. For the same molecule, the “Pulp Firmness - External” value (Papayas ‘Golden’ [3]; 90 Perf. MAP bag, 14 days at 11° C. then 3 days @ 24° C.) was 3.94 lbf, the “Pulp Firmness - External” value (Papayas ‘Golden’ [3]; 90 Perf. MAP bag, 14 days at 11° C. then 5 days @ 24° C.) was 3.28 lbf and the “External Firmness - Difference … (Δ)” value (Papayas ‘Golden’ [3]; 180 Perf. MAP bag) was 1.27 lbf. The “Pulp Firmness - External” value (Papayas ‘Golden’ [3]; 180 Perf. MAP bag, 14 days at 11° C. then 3 days @ 24° C.) was 3.64 lbf, the “Pulp Firmness - External” value (Papayas ‘Golden’ [3]; 180 Perf. MAP bag, 14 days at 11° C. then 5 days @ 24° C.) was 2.80 lbf and the “External Firmness - Difference … (Δ)” value (Papayas ‘Golden’ [3]; No Bag) was 1.09 lbf. The “Pulp Firmness - External” value (Papayas ‘Golden’ [3]; No Bag, 14 days at 11° C. then 3 days @ 24° C.) was 6.23 lbf, the “Pulp Firmness - External” value (Papayas ‘Golden’ [3]; No Bag, 14 days at 11° C. then 5 days @ 24° C.) was 2.62 lbf and the “Percentage of fruits with ideal internal pulp firmness” value (shortened to “Percentage of fruits”) (Papayas ‘Golden’ [4]; [6]) was 77.08%. The “Percentage of fruits” value (Papayas ‘Golden’ [4]; [7]) was 28.57%, the “Percentage of fruits” value (Papayas ‘Golden’ [4]; [8]) was 0.00% and the “Percentage of fruits” value (Papayas ‘Golden’ [4]; [9]) was 60.87%. For the same molecule, the “Percentage of fruits” value (Papayas ‘Golden’ [4]; [10]) was 12.90%, the “Percentage of fruits” value (Papayas ‘Golden’ [4]; [11]) was 0.00% and the “external firmness during shelf-life, in words” value (Papayas ‘Golden’ [5]; 1-MCP alone, compared to the present invention (1-MCP + MAP)) was “lower efficiency to maintain external firmness”. For the same molecule, the “Pulp Firmness - External” value (Papayas ‘Golden’ [5]; [6]) was 3.84 lbf, the “Pulp Firmness - External” value (Papayas ‘Golden’ [5]; [7]) was 1.98 lbf and the “Pulp Firmness - External” value (Papayas ‘Golden’ [5]; [8]) was 1.30 lbf. For the same molecule, the “Pulp Firmness - External” value (Papayas ‘Golden’ [5]; [9]) was 3.03 lbf, the “Pulp Firmness - External” value (Papayas ‘Golden’ [5]; [10]) was 1.88 lbf and the “Pulp Firmness - External” value (Papayas ‘Golden’ [5]; [11]) was 1.11 lbf.
